Tested on: mouse Leydig cells (TM3 cells, ATCC CRL1714)
Test: Test of effects of plant extracts or combinations of components on testosterone secretion (testosterone ELISA of culture supernatant)
Format: cell-based
Details: 24 hours, control 100%
Procedure: 500 μl of the cell culture medium was added to each well of a 24-well plate to have 2×10^4 TM3 cells per well, and cultured at 37° C. for 24 hours. After the cells were adhered, the original medium was removed, and 500 μl of the aforementioned fresh cell culture medium was added.
The samples were then divided into two groups, of which group A was the control group, and no plant extracts or other test components were added. Group B was the test group. […] After that, the condition of the amount of testosterone secretion was analyzed. The doses shown in the tables are the doses of the single extract, or the combination of the extracts.
First, 50 μl of the supernatant of the culture medium after the reaction of each of the above groups was taken out, and the testosterone ELISA test kit (USCN, Cat# CEA458Ge) was used to detect the testosterone concentration. The detected values were then analyzed by Microsoft Excel software using Student's t-test to determine whether there is statistical significance between the two samples (* indicates p-value <0.05; ** indicates p-value <0.01; *** indicates p-value <0.001).

[1] = dose 0.125 mg/ml (single extract/component or 1:1 combination)
[2] = dose 0.25 mg/ml (single extract/component or 1:1 combination)

SMILES | Testosterone secretion relative to control (dose 0.03125 mg/ml (single extract/component or 1:1 combination)) [%] | Testosterone secretion relative to control [1] [%] | Testosterone secretion relative to control [2] [%]
CC1=C(/C=C/C(C)=C/C=C/C(C)=C/C=C/C=C(C)/C=C/C=C(C)/C=C/C2=C(C)CCCC2(C)C)C(C)(C)CCC1 [beta carotene] | 66.21 | 103.79 | 111.42
CC(C)=CCC/C(C)=C/C=C/C(C)=C/C=C/C(C)=C/C=C/C=C(C)/C=C/C=C(C)/C=C/C=C(\C)CCC=C(C)C [lycopene] | – | 99.94 | 104.02
